Measured values: patent publication US10975091B2, “Pyridine derivative” (Astellas Pharma Inc., priority 2014, dated 2021)

System: continuously hydrated rats
Assay: Antidiuresis test in continuously hydrated rats with additional water loading (oral administration)
Format: in vivo, rat
Settings: for urine production after additional water loads: groups with additional water loads (15 mL/kg at two and three hours after administration); for urine production after additional water loads / urine production: FIG. 1; for urine production: groups without additional water loads, two hours after administration, maintained until four hours; for change in plasma sodium level (in words): three hours and four hours after administration, additional water loads
Experimental: Male Wistar rats were used in the test. Initially, water load with 15 mL/kg of distilled water was forcedly administered to the rats. Every 30 minutes after loading water, urine volume collected during 30 minutes was measured and distilled water was forcedly administered to the rats in an amount equal to the urine volume excreted during the last 30 minutes. This water load procedure was repeated to the termination of the test to maintain the diuretic state. […] The individual groups were further divided into two subgroups, and additional distilled water of 15 mL/kg load was forcedly administered to one of the subgroups two times, i.e. at two hours and three hours after the administration. For comparison, the Vehicle group administered only with the vehicle was also subjected to the additional administrations of water load. Blood was collected from a half of the rats in each group subjected to additional administrations of water load, at three hours after the administration (immediately before the second additional water load) and from the other half at four hours after the administration, and plasma sodium levels were measured with an automatic electrolyte analyzer to determine the plasma sodium levels at three hours and four hours after the administration, respectively (each group consisted of seven to eight rats). Changes in the urine volume in individual groups are shown in FIG. 1, and the plasma sodium levels of the group administered with additional water loads are shown in Table 4.

CC(C)C[C@H](N)[C@](O)(Cc1cc(O[C@H]2CC[C@H](C)CC2)ccn1)C(=O)O (relative stereo) [EX-a]
urine production after additional water loads: resumed after administration of the additional water loads | urine production: almost stopped | change in plasma sodium level (in words): slightly decreased

CCSC[C@H](N)[C@](O)(Cc1cc(O[C@H]2CC[C@H](C)CC2)ccn1)C(=O)O [EX-b, (2R,3R)-3-amino-4-(ethylsulfanyl)-2-hydroxy-2-({4-[(trans-4-methylcyclohexyl)oxy]pyridin-2-yl}methyl)butanoic acid]
urine production after additional water loads: resumed after administration of the additional water loads | urine production: almost stopped | change in plasma sodium level (in words): slightly decreased

NC(=O)CC[C@@H]1NC(=O)[C@H](Cc2ccccc2)NC(=O)[C@H](Cc2ccc(O)cc2)NC(=O)CCSSC[C@@H](C(=O)N2CCC[C@H]2C(=O)N[C@H](CCCN=C(N)N)C(=O)NCC(N)=O)NC(=O)[C@H](CC(N)=O)NC1=O [dDAVP, Desmopressin, reference compound]
urine production after additional water loads: urine production was not resumed | urine production: almost stopped | change in plasma sodium level (in words): more significant decreases
